Where two headings read alike, the source gives them in different places.
Tests used:
Subcutaneous tumors = test: In vivo PDT of subcutaneous tumors in mouse thighs
Procedure: Subcutaneous tumors were grown in mouse thighs and PDT (808 nm, 600 Jcm^−2) was performed when tumor reached 5×5 mm in size. Mice were sacrificed if tumor continued to grow after PDT treatment and reached 10×10 mm.
Subcutaneous tumors were grown in mouse thighs and PDT (635 nm, 192 Jcm^−2) was performed when tumor reached 5×5 mm in size. Mice were sacrificed if tumor continued to grow after PDT treatment and reached 10×10 mm.
Subcutaneous tumors were grown in mouse thighs and PDT (525 nm, 90 Jcm^−2) was performed when tumor reached 5×5 mm in size. Mice were sacrificed if tumor continued to grow after PDT treatment and reached 10×10 mm.

U87 cells = test: Intracellular uptake by ICP-MS, cancer cells; assay type: cell-based, human; settings: 200 uM photosensitizer, 0.8 mg/mL transferrin, 4 hours
Procedure: (§1) Cell culture (U87 cells) was exposed to 200 uM of the photosensitizer without additional transferrin and in the presence of 0.8 mg/mL transferrin for 4 hours. The incubation mix was washed away and the cells were collected, counted, and lysed. Lysed solution was dissolved in nitric acid and appropriate metals concentration was measured using inductively coupled plasma mass spectrometry. The metals concentration is directly proportional to the concentration of the photosensitizer.

[1] = Singlet oxygen production, cell free (SOG indicator fluorescence); assay type: physicochemical; design: unit not given here
Procedure: The photosensitizers were diluted in phosphate buffer (pH=7.0)+100 mM NaCl or incomplete DMEM. The irradiation was performed in 96-well plates (100 uL working volume). Generation of singlet oxygen was measured by fluorescence signal of SOG indicator, generation of hydroxyl radical by fluorescence signal of HPF indicator. The signal presented is a result of subtraction of the signal in the presence of scavengers (NaN3 for singlet oxygen and DMTU for hydroxyl radical) from the total fluorescence signal.

Transferrin = Transferrin (Homo sapiens, UniProt P02787); test: Binding to transferrin by absorption spectra; settings: transferrin 0.2 mg/mL; photosensitizer 10 uM
Sequence of Transferrin (P02787 20-698): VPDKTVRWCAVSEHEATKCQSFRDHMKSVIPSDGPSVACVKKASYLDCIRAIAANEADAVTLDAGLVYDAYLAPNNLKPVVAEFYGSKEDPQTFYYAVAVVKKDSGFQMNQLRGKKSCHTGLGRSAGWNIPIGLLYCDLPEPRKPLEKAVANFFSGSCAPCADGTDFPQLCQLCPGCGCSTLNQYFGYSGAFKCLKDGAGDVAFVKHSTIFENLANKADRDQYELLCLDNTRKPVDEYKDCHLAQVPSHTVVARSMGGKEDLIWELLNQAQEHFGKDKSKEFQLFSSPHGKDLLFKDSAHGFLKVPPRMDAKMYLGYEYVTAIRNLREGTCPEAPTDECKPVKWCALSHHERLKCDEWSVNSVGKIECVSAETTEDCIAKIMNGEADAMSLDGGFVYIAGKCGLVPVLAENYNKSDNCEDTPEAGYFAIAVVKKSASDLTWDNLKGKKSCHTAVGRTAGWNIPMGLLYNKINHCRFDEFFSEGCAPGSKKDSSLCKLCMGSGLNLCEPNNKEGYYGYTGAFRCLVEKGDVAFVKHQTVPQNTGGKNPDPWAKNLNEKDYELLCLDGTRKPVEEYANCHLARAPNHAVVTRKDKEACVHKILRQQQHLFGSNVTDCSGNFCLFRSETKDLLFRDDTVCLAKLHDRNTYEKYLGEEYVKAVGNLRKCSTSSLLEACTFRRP
Procedure: Transferrin (0.2 mg/mL) was incubated with the photosensitizers (10 uM) and absorption spectra were obtained.
Binding of Ruthenium and Ruthenium-Rhodium-based photosensitizers to transferrin is characterized by a characteristic signature: an increased peak of absorption at 280 nm and a new peak in 400-500 nm range.

normal human fibroblasts = test: Uptake by normal cells by ICP-MS; assay type: cell-based; settings: 200 uM, 0.8 mg/mL transferrin, 4 hours, much lesser extent than cancer cells
Procedure: as §1, with “(normal human fibroblasts)” for “(U87 cells)”

For `[Os+2].c1ccc2cc3nc4c5cccnc5c5ncccc5c4nc3cc2c1.c1ccc2nc(-c3ccc4ccccc4n3)ccc2c1.c1ccc2nc(-c3ccc4ccccc4n3)ccc2c1` [TLDOsH2dppn], the “Survival by day 80” value (Subcutaneous tumors; PDT 525 nm, 90 Jcm−2, with transferrin) was 78%, the “Survival by day 80” value (Subcutaneous tumors; PDT 525 nm, 90 Jcm−2, without transferrin) was 37% and the “Survival by day 80” value (Subcutaneous tumors; PDT 635 nm, 192 Jcm−2, with transferrin) was 75%. For the same molecule, the “Survival by day 80” value (Subcutaneous tumors; PDT 635 nm, 192 Jcm−2, without transferrin) was 35%, the “Survival by day 80” value (Subcutaneous tumors; PDT 808 nm, 600 Jcm−2, with transferrin) was 80% and the “Survival by day 80” value (Subcutaneous tumors; PDT 808 nm, 600 Jcm−2, without transferrin) was 40%. For the same molecule, the “uptake into cancer cells, effect of transferrin” value (U87 cells) was “transferrin facilitated uptake”, the singlet oxygen production ([1]; 530 nm & 1092 J cm−2, incomplete DMEM, 0.8 mg/mL transferrin) was 35127 and the singlet oxygen production ([1]; 530 nm & 1092 J cm−2, incomplete DMEM, 1.6 mg/mL transferrin) was 43927. It also gave a singlet oxygen production ([1]; 530 nm & 1092 J cm−2, incomplete DMEM, 3.2 mg/mL transferrin) of 61734, a singlet oxygen production ([1]; 530 nm & 1092 J cm−2, incomplete DMEM, no transferrin) of 36391 and a singlet oxygen production ([1]; 530 nm & 1092 J cm−2, phosphate buffer, 0.8 mg/mL transferrin) of 42816. For the same molecule, the singlet oxygen production ([1]; 530 nm & 1092 J cm−2, phosphate buffer, 1.6 mg/mL transferrin) was 56372, the singlet oxygen production ([1]; 530 nm & 1092 J cm−2, phosphate buffer, 3.2 mg/mL transferrin) was 77219 and the singlet oxygen production ([1]; 530 nm & 1092 J cm−2, phosphate buffer, no transferrin) was 25937. It also gave a singlet oxygen production ([1]; 635 nm & 649 J cm−2, incomplete DMEM, 0.8 mg/mL transferrin) of 53931, a singlet oxygen production ([1]; 635 nm & 649 J cm−2, incomplete DMEM, 1.6 mg/mL transferrin) of 75293 and a singlet oxygen production ([1]; 635 nm & 649 J cm−2, incomplete DMEM, 3.2 mg/mL transferrin) of 81807. The singlet oxygen production ([1]; 635 nm & 649 J cm−2, incomplete DMEM, no transferrin) was 15109, the singlet oxygen production ([1]; 635 nm & 649 J cm−2, phosphate buffer, 0.8 mg/mL transferrin) was 42837 and the singlet oxygen production ([1]; 635 nm & 649 J cm−2, phosphate buffer, 1.6 mg/mL transferrin) was 51832. It also gave a singlet oxygen production ([1]; 635 nm & 649 J cm−2, phosphate buffer, 3.2 mg/mL transferrin) of 72938, a singlet oxygen production ([1]; 635 nm & 649 J cm−2, phosphate buffer, no transferrin) of 10392 and a singlet oxygen production ([1]; 808 nm & 4000 J cm−2, incomplete DMEM, 0.8 mg/mL transferrin) of 25384. It also gave a singlet oxygen production ([1]; 808 nm & 4000 J cm−2, incomplete DMEM, 1.6 mg/mL transferrin) of 55631, a singlet oxygen production ([1]; 808 nm & 4000 J cm−2, incomplete DMEM, 3.2 mg/mL transferrin) of 62804 and a singlet oxygen production ([1]; 808 nm & 4000 J cm−2, incomplete DMEM, no transferrin) of 11907. It also gave a singlet oxygen production ([1]; 808 nm & 4000 J cm−2, phosphate buffer, 0.8 mg/mL transferrin) of 10000, a singlet oxygen production ([1]; 808 nm & 4000 J cm−2, phosphate buffer, 1.6 mg/mL transferrin) of 30000 and a singlet oxygen production ([1]; 808 nm & 4000 J cm−2, phosphate buffer, 3.2 mg/mL transferrin) of 40000. For the same molecule, the singlet oxygen production ([1]; 808 nm & 4000 J cm−2, phosphate buffer, no transferrin) was 8000, the “Therapeutic Ratio” value (HT1376 cells; 530 nm, 90 J cm−2, no transferrin) was 1548.2 and the “Therapeutic Ratio” value (HT1376 cells; 530 nm, 90 J cm−2, transferrin) was 4963.8. For the same molecule, the “Therapeutic Ratio” value (HT1376 cells; 650 nm, 90 J cm−2, no transferrin (cell not marked prophetic)) was 37.7, the “Therapeutic Ratio” value (HT1376 cells; 650 nm, 90 J cm−2, transferrin) was 61.9 and the “transferrin binding (absorption spectra)” value (Transferrin) was “transferrin binding”. The “cellular accumulation in normal cells, effect of transferrin” value (normal human fibroblasts) was “higher in the presence of transferrin”.

Source: patent US10111936B2, “Metal-glycoprotein complexes and photodynamic therapy of immune privileged sites with same” (Theralase Technologies, Inc., priority 2015, dated 2018)
